How the values were obtained:
HFD mice [1] = assay: Body weight and total body/abdominal fat density (DEXA) in HFD-supplied mice; format: in vivo, ICR mice; settings: test materials 200 mg/kg, metformin 250 mg/kg
Experimental: Specifically, after acclimating total 200 6-week-old female ICR mice to a laboratory environment for 7 days, they were adapted to HFD (45% Kcal high fat diet) 1 week before the start of administration of the experimental substance, and then the experimental substance was administered, and in the normal control group, a general NFD (Normal pellet diet) was supplied by the same method.
As the experimental substance, the LB (lemon balm extract) and CS (corn silk extract) alone and 9 kinds of LB:CS complexes (LB:CS=1:1, 1:2, 1:4, 1:6, 1:8, 2:1, 4:1, 6:1 and 8:1 (g/g)) as described in Table 1 above were used. The administration dose of the experimental substance was equally set to 200 mg/kg in total based on the medicinal efficacy investigation research of the present inventors. The experimental substance was dissolved in sterile distilled water and orally administered.
In addition, the total body fat and abdominal fat density were measured using DEXA (live dual-energy x-ray absorptiometry) and the result was shown in FIG. 4.

HFD mice [2] = assay: Periovarian and abdominal wall fat pad thickness, adipocyte size and accumulated fat weight in HFD-supplied mice; format: in vivo, ICR mice; settings: test materials 200 mg/kg oral, Metformin 250 mg/kg, mean±SD for 8 mice

CN(C)C(=N)N=C(N)N [Metformin]
Time after the start of administration at which a significant (p<0.01 or p<0.05) decrease of body weight and fat density compared to the HFD control group began (HFD mice [1]): 21 days
Body weight and fat density during the 84-day administration period, compared to the HFD control group (groups listed in order of effect) (HFD mice [1]; 84 days): significant (p<0.01) decrease
Abdominal wall fat pads Adipocyte diameters (HFD mice [2]): 64.49 ± 13.74^ab μm
Abdominal wall fat pads Thickness (HFD mice [2]): 2.99 ± 0.49^fg mm
Periovarian fat pads Adipocyte diameters (HFD mice [2]): 48.12 ± 6.36^fg μm
Periovarian fat pads Thickness (HFD mice [2]): 2.83 ± 0.43^ab mm
